Measured values reported in US9580416B2, “Inhibitors of Bruton's tyrosine kinase” (PHARMACYCLICS LLC, priority 2014, dated 2017).
Each block holds one compound with its values, some of them ahead of it.

Target: Btk (Homo sapiens, UniProt Q06187)
Experiment: Btk kinase activity, TR-FRET assay
Assay type: biochemical
Conditions: read-out: Btk (IC50)
Experimental: Btk kinase activity is determined using a time-resolved fluorescence resonance energy transfer (TR-FRET) methodology. Measurements are performed in a reaction volume of 50 μL using 96-well assay plates. Kinase enzyme, inhibitor, ATP (at the Km for the kinase), and 1 […] (Biotin-AVLESEEELYSSARQ-NH2) are incubated in a reaction buffer composed of 20 mM Tris, 50 mM NaCl, MgCl2 (5-25 mM depending on the kinase), MnCl2 (0-10 mM), 1 mM DTT, 0.1 mM EDTA, 0.01% bovine serum albumin, 0.005% Tween-20, and 10% DMSO at pH 7.4 for one hour. The reaction is quenched by the addition of 1.2 equivalents of EDTA (relative to divalent cation) in 25 μL of 1× Lance buffer (Perkin-Elmer). Streptavidin-APC (Perkin-Elmer) and Eu-labeled p-Tyr100 antibody (Perkin-Elmer) in 1× Lance buffer are added in a 25 μL volume to give final concentrations of 100 nM and 2.5 nM, respectively, and the mixture is allowed to incubate for one hour. The TR-FRET signal is measured on a multimode plate reader with an excitation wavelength (λEx) of 330 nm and detection wavelengths (λEm) of 615 and 665 nm. Activity is determined by the ratio of the fluorescence at 665 nm to that at 615 nm. For each compound, enzyme activity is measured at various concentrations of compound. Negative control reactions are performed in the absence of inhibitor in replicates of six, and two no-enzyme controls are used to determine baseline fluorescence levels. Inhibition constants, Ki(app), ware obtained using the program BatchKi (Kuzmic et al. (2000), Anal. Biochem. 286:45-50). IC50s are obtained according to the equation: IC50={Ki(app)/(1+[ATP]/Km^ATP)}+[E]total/2;
For all kinases, [ATP]=Km^ATP, [Btk]total=0.5 nM and [Lck]total=6 nM.

Chain of Btk (Q06187 whole entry): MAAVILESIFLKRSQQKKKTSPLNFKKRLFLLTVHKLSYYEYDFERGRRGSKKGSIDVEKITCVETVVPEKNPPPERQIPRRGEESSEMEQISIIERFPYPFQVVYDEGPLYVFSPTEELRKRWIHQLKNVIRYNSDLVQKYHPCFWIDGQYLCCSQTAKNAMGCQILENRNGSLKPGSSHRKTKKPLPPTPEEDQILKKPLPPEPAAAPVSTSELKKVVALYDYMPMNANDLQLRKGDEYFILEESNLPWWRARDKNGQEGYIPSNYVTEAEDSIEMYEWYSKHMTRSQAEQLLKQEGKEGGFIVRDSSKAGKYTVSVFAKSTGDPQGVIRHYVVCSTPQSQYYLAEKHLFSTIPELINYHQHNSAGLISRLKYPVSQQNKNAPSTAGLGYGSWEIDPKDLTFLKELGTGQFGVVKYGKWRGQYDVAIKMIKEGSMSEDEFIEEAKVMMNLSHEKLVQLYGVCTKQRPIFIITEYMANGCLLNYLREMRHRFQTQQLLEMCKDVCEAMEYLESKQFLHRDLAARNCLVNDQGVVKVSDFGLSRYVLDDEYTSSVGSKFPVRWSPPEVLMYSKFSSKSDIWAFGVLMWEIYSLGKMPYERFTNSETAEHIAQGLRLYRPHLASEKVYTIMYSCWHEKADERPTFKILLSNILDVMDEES

IC50: 100 to 1000 nM
Structure (SMILES): c1ccc(Oc2ccc(Oc3ccnc4[nH]nc(NC[C@@H]5CCCNC5)c34)cc2)cc1 [compound 263, (R)-4-(4-phenoxyphenoxy)-N-(piperidin-3-ylmethyl)-1H-pyrazolo[3,4-b]pyridin-3-amine]

IC50: 100 to 1000 nM
Structure (SMILES): CN(C/C=C/C(=O)N1CCC[C@@H](Nc2n[nH]c3nccc(Oc4ccc(C(=O)Nc5cccc(C(F)(F)F)c5)cc4)c23)C1)C1CC1 [compound 138, 4-[(3-{[(3R)-1-[(2E)-4-[cyclopropyl(methyl)amino]but-2-enoyl]piperidin-3-yl]amino}-1H-pyrazolo[3,4-b]pyridin-4-yl)oxy]-N-[3-(trifluoromethyl)phenyl]benzamide]

IC50: 1000 to 10000 nM
Structure (SMILES): Cc1c[nH]c(NC(=O)c2ccc(Oc3ccnc4[nH]nc(N[C@@H]5CCCN(C(=O)/C=C/CN(C)C6CC6)C5)c34)cc2)n1 [compound 157]

IC50: 100 to 1000 nM
Structure (SMILES): CN(C/C=C/C(=O)N1CC[C@@H](N(C(=O)/C=C/CN(C)C2CC2)c2n[nH]c3ncnc(Oc4ccc(Oc5ccccc5)cc4)c23)C1)C1CC1 [compound 49]

IC50: < 100 nM
Structure (SMILES): CN(C/C=C/C(=O)N1CC[C@@H](N2CC(=O)N(c3ccc(Oc4ccccc4)cc3)c3ccnc4[nH]nc2c34)C1)C1CC1 [compound 239]

IC50: 1000 to 10000 nM
Structure (SMILES): Cc1cnc(-c2cccc(Oc3ccnc4[nH]nc(N[C@@H]5CCCN(C(=O)/C=C/CN(C)C6CC6)C5)c34)c2)s1 [compound 150]

More lines, now with the values behind:

Structure (SMILES): CC#CC(=O)N1CCC[C@@H](Nc2n[nH]c3nccc(Oc4ccc(-c5ccc(C(F)(F)F)cn5)cc4)c23)C1 [compound 206, 1-[(3R)-3-[(4-{4-[5-(trifluoromethyl)pyridin-2-yl]phenoxy}-1H-pyrazolo[3,4-b]pyridin-3-yl)amino]piperidin-1-yl]but-2-yn-1-one]
IC50: > 10000 nM

Structure (SMILES): CC#CC(=O)N1CCC[C@@H](Nc2n[nH]c3nccc(Oc4ccc(C(=O)N5CCCC(C(F)(F)F)C5)cc4)c23)C1 (some centres unmarked) [compound 163]
IC50: 100 to 1000 nM

Structure (SMILES): Cc1cc(NC(=O)c2cccc(Nc3ccnc4[nH]nc(N[C@@H]5CCCNC5)c34)c2)ccc1C(C)C [compound 253, (R)—N-(4-isopropyl-3-methylphenyl)-3-(3-(piperidin-3-ylamino)-1H-pyrazolo[3,4-b]pyridin-4-ylamino)benzamide]
IC50: 100 to 1000 nM

Structure (SMILES): Cc1cc(NC(=O)c2cccc(Oc3ccnc4[nH]nc(N[C@H]5CCNC5)c34)c2)ccc1C(C)C [compound 260, (S)—N-(4-isopropyl-3-methylphenyl)-3-(3-(pyrrolidin-3-ylamino)-1H-pyrazolo[3,4-b]pyridin-4-yloxy)benzamide]
IC50: 100 to 1000 nM

Structure (SMILES): C=CC(=O)N1CC[C@@H](Nc2n[nH]c3nccc(Oc4ccc(C(=O)Nc5cc(C(F)(F)F)ccn5)cc4)c23)C1 [compound 171]
IC50: < 100 nM

Structure (SMILES): CC#CC(=O)N1CCC[C@@H](Nc2n[nH]c3nccc(Oc4ccc(C(=O)N(C)c5ncc(C)s5)cc4)c23)C1 [compound 210, 4-[(3-{[(3R)-1-(but-2-ynoyl)piperidin-3-yl]amino}-1H-pyrazolo[3,4-b]pyridin-4-yl)oxy]-N-methyl-N-(5-methyl-1,3-thiazol-2-yl)benzamide]
IC50: 100 to 1000 nM

Structure (SMILES): C=CC(=O)N1CCC[C@@H](Nc2n[nH]c3nccc(Oc4ccc(C(=O)Nc5ncc(C#N)s5)cc4)c23)C1 [compound 166]
IC50: < 100 nM

Structure (SMILES): Nc1ncnc2[nH]nc(-c3ccc(Oc4ccccc4)cc3)c12 [compound 121, 3-(4-phenoxyphenyl)-1H-pyrazolo[3,4-b]pyrimidin-4-amine]
IC50: < 100 nM

Structure (SMILES): CC#CC(=O)N1CCC[C@@H](Nc2n[nH]c3nccc(Oc4ccc(C(=O)Nc5ncc(C#N)s5)cc4)c23)C1 [compound 168]
IC50: < 100 nM

Structure (SMILES): CC#CC(=O)N1CCC[C@@H](Nc2n[nH]c3nccc(Oc4ccc(C(=O)Nc5nnc(C)s5)cc4)c23)C1 [compound 180]
IC50: 1000 to 10000 nM

Structure (SMILES): C=CC(=O)N1CCC[C@@H](Nc2n[nH]c3nccc(Oc4ccc(C(=O)N(C)c5ncc(C)s5)cc4)c23)C1 [compound 211, N-methyl-N-(5-methyl-1,3-thiazol-2-yl)-4-[(3-{[(3R)-1-(prop-2-enoyl)piperidin-3-yl]amino}-1H-pyrazolo[3,4-b]pyridin-4-yl)oxy]benzamide]
IC50: < 100 nM
